These compounds were tested against T1, Met kinase (Homo sapiens, UniProt P08581) (assay: Met kinase inhibition, cell assay).
Type: cell-based
Target sequence in this assay (P08581 25-1390): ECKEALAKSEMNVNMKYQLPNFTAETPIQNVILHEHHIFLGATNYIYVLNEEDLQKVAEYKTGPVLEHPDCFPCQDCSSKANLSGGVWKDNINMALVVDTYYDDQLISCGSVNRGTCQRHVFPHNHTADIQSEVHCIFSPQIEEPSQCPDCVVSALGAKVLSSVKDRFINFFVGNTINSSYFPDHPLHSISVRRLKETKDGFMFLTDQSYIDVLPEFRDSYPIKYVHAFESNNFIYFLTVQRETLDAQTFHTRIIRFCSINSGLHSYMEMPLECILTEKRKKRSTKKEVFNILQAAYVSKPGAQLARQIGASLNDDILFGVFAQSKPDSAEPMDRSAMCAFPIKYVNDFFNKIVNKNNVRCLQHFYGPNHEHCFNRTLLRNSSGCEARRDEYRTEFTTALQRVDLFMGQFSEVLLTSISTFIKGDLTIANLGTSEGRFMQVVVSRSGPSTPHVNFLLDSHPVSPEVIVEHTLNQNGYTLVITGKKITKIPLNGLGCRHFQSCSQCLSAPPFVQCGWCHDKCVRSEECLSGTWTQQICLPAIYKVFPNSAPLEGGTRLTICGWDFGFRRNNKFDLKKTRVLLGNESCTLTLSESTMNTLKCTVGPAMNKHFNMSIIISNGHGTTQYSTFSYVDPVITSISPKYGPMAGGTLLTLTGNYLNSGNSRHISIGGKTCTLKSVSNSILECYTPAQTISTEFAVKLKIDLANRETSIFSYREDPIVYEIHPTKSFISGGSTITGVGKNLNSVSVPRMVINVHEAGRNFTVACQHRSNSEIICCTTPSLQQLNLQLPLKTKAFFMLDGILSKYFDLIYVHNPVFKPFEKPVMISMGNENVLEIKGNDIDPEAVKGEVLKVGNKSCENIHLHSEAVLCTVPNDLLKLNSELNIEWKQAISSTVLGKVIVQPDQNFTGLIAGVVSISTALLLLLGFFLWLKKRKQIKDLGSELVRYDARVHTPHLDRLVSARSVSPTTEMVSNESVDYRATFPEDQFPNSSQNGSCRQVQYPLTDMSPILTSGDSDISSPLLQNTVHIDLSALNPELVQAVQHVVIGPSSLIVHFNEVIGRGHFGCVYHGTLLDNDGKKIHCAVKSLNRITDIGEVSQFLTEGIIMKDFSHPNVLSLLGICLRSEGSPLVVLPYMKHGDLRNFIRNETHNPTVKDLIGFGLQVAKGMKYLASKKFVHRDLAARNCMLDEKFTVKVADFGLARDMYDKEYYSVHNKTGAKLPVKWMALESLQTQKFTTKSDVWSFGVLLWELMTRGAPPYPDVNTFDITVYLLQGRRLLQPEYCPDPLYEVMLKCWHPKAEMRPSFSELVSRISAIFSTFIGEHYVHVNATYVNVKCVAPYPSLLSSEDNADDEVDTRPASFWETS

IC50	Structure (SMILES)
10 to 1000 nM	CCOCCN1CCN(c2nc(-c3cccc(Cn4nc(-c5cc(F)cc(F)c5)ccc4=O)c3)no2)CC1 [Compound A123, 6-(3,5-Difluorophenyl)-2-(3-{5-[4-(2-ethoxyethyl)-piperazin-1-yl]-1,2,4-oxadiazol-3-yl}benzyl)-2H-pyridazin-3-one]
10 to 1000 nM	COCCCN1CCN(c2nc(-c3cccc(Cn4nc(-c5cc(F)cc(F)c5)ccc4=O)c3)no2)CC1 [Compound A124, 6-(3,5-Difluorophenyl)-2-(3-{5-[4-(3-methoxypropyl)-piperazin-1-yl]-1,2,4-oxadiazol-3-yl}benzyl)-2H-pyridazin-3-one]
10 to 1000 nM	O=c1ccc(-c2cc(F)cc(F)c2)nn1Cc1cccc(-c2noc(N3CCN(CCO)CC3)n2)c1 [Compound A111, 6-(3,5-difluorophenyl)-2-(3-{5-[4-(2-hydroxyethyl)piperazin-1-yl]-1,2,4-oxadiazol-3-yl}benzyl)-2H-pyridazin-3-one]

Each compound was assayed against T1, Met kinase (assay: Met kinase inhibition, enzyme assay (flashplate method)).
Type: biochemical
Parameters: 6His (N); purchased Upstate 14-526; host or cells: Sf21 insect cells (S. frugiperda), baculovirus
Method: Flashplate Method (Met Kinase)
The test plates used are 96-well Flashplate® microtitre plates from Perkin Elmer (Cat. No. SMP200). The components of the kinase reaction described below are pipetted into the assay plate. The Met kinase and the substrate poly Ala-Glu-Lys-Tyr, (pAGLT, 6:2:5:1), are incubated for 3 hrs at room temperature with radioactively labelled ^33P-ATP in the presence and absence of test substances in a total volume of 100 μl. The reaction is terminated using 150 μl of a 60 mM EDTA solution. After incubation for a further 30 min at room temperature, the supernatants are filtered off with suction, and the wells are washed three times with 200 μl of 0.9% NaCl solution each time. The measurement of the bound radioactivity is carried out by means of a scintillation measuring instrument (Topcount NXT, Perkin-Elmer).
The full value used is the inhibitor-free kinase reaction. This should be approximately in the range 6000-9000 cpm. The pharmacological zero value used is staurosporin in a final concentration of 0.1 mM. The inhibitory values (IC50) are determined using the RS1_MTS program.
Kinase reaction conditions per well:
10 μl of substance to be tested in assay buffer with 10% of DMSO
10 μl of ATP (final concentration 1 μM cold, 0.35 μCi of ^33P-ATP)
50 μl of Met kinase/substrate mixture in assay buffer;
Target sequence in this assay (P08581 974-1390 limits assumed): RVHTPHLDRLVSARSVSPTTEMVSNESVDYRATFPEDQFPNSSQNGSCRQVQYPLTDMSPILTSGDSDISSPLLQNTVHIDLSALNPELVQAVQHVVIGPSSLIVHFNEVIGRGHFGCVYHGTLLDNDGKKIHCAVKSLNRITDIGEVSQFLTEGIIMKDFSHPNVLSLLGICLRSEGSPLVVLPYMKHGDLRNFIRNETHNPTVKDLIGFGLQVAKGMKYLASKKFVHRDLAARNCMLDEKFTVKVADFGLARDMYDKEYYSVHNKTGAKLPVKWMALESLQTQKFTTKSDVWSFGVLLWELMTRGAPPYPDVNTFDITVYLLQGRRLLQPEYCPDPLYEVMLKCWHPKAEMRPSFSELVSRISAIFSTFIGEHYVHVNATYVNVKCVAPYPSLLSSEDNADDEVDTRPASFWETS

Structure (SMILES)	IC50
CN1CCC(N(C)c2nc(-c3cccc(Cn4nc(-c5cc(F)cc(F)c5)ccc4=O)c3)no2)CC1 [Compound A46, 6-(3,5-difluorophenyl)-2-(3-{5-[methyl-(1-methylpiperidin-4-yl)-amino]-1,2,4-oxadiazol-3-yl}benzyl)-2H-pyridazin-3-one]	10 to 1000 nM
COCCN1CCN(c2nc(-c3cccc(Cn4nc(-c5cc(F)cc(F)c5)ccc4=O)c3)no2)CC1 [Compound A50, 6-(3,5-Difluorophenyl)-2-(3-{5-[4-(2-methoxyethyl)-piperazin-1-yl]-1,2,4-oxadiazol-3-yl}benzyl)-2H-pyridazin-3-one]	10 to 1000 nM
Cc1nc(-c2cccc(Cn3nc(-c4cc(F)cc(F)c4)ccc3=O)c2)no1 [Compound A1, 6-(3,5-difluorophenyl)-2-[3-(5-methyl-1,2,4-oxadiazol-3-yl)benzyl]-2H-pyridazin-3-one]	10 to 1000 nM

Next, values leading:

IC50	Structure (SMILES)
10 to 1000 nM	CN(C)CCCNc1nc(-c2cccc(Cn3nc(-c4cc(F)cc(F)c4)ccc3=O)c2)no1 [Compound A12, 6-(3,5-difluorophenyl)-2-{3-[5-(3-dimethylaminopropylamino)-1,2,4-oxadiazol-3-yl]benzyl}-2H-pyridazin-3-one]
10 to 1000 nM	O=c1ccc(-c2cc(F)cc(F)c2)nn1Cc1cccc(-c2ncc(C3CCNCC3)s2)c1 [Compound A91, 6-(3,5-difluorophenyl)-2-[3-(5-piperidin-4-ylthiazol-2-yl)benzyl]-2H-pyridazin-3-one]
10 to 1000 nM	CN1CCN(C(=O)c2nc(-c3cccc(Cn4nc(-c5cc(F)cc(F)c5)ccc4=O)c3)no2)CC1 [Compound A21, 6-(3,5-difluorophenyl)-2-{3-[5-(4-methylpiperazine-1-carbonyl)-1,2,4-oxadiazol-3-yl]benzyl}-2H-pyridazin-3-one]
10 to 1000 nM	Cc1cnc(-c2cccc(Cn3nc(-c4cccc(Cl)c4)ccc3=O)c2)o1 [Compound A33]
10 to 1000 nM	CCN1CCN(c2nc(-c3cccc(Cn4nc(-c5cc(F)cc(F)c5)ccc4=O)c3)no2)CC1 [Compound A48]
10 to 1000 nM	CN1CCC(c2cnc(-c3cccc(Cn4nc(-c5cc(F)cc(F)c5)ccc4=O)c3)o2)CC1 [Compound A88, 6-(3,5-difluorophenyl)-2-{3-[5-(1-methylpiperidin-4-yl)oxazol-2-yl]benzyl}-2H-pyridazin-3-one]
10 to 1000 nM	CCNc1nc(-c2cccc(Cn3nc(-c4cc(F)cc(F)c4)ccc3=O)c2)no1 [Compound A11, 6-(3,5-difluorophenyl)-2-[3-(5-ethylamino-1,2,4-oxadiazol-3-yl)benzyl]-2H-pyridazin-3-one]
10 to 1000 nM	CN1CCN(c2nc(-c3cccc(Cn4nc(-c5cc(F)cc(F)c5)ccc4=O)c3)no2)CC1 [Compound A20, 6-(3,5-difluorophenyl)-2-{3-[5-(4-methylpiperazin-1-yl)-1,2,4-oxadiazol-3-yl]benzyl}-2H-pyridazin-3-one]
10 to 1000 nM	O=c1ccc(-c2cc(F)cc(F)c2)nn1Cc1cccc(-c2noc(NCCN3CCOCC3)n2)c1 [Compound A22]

From patent publication US8435981B2, “2-(heterocyclylbenzyl)pyridazinone derivatives” (Merck Patent Gesellschaft mit Beschränkter Haftung, priority 2006, dated 2013)
